According to patent publication US6218400A, “Treatment method using a cGMP-Specific PDE inhibitor” (ICOS Corporation, priority 1995, dated 2001):

Tests used:
[1] = biological target: human recombinant PDE V (Homo sapiens, UniProt O76074); assay: Inhibitory effect on cGMP-PDE (one-step assay, human recombinant PDE V); format: biochemical; conditions: 0.15 μM 8-[H^3]-cGMP, 2% DMSO, 30 minutes
Experimental: cGMP-PDE activity of compounds of the present invention was measured using a one-step assay adapted from Wells at al. (Wells, J. N., Baird, C. E., Wu, Y. J. and Hardman, J. G., Biochim. Biophys. Acta 384, 430 (1975)). The reaction medium contained 50 mM Tris-HCl,pH 7.5, 5 mM Mg-acetate, 250 μg/ml 5'-Nucleotidase, 1 mM EGTA and 0.15 μM 8-[H^3 ]-cGMP. The enzyme used was a human recombinant PDE V (ICOS, Seattle USA).
Compounds of the invention were dissolved in DMSO finally present at 2% in the assay.

[2] = system: conscious spontaneously hypertensive rats (SHRs); assay: Hypotensive effects in conscious spontaneously hypertensive rats; format: in vivo, rat; conditions: AUC from 0 to 5 hours
Experimental: The hypotensive effects of compounds according to the invention as identified in Table 2 were studied in conscious spontaneously hypertensive rats (SHRs). The compounds were administered orally at a dose of 5 or 10 mg/kg in a mixture of 5% DMF and 95% olive oil, or i.v. at a dose of 10 mg/kg in a mixture of 40% dimethylformamide, 25% tetraglycol, and […]. Blood pressure was measured from a catheter inserted in the carotid artery and recorded for 5 hours after administration. The results are expressed as Area Under the Curve (AUC from 0 to 5 hours, mmHg.hour) of the fall in blood pressure over time.

[3] = system: Rat aortic smooth muscle cells (RSMC); assay: cGMP level measurements in rat aortic smooth muscle cells (RSMC); format: cell-based; conditions: 10 min, cGMP after ANF (100 nM) stimulation for 10 minutes, dose giving half of the stimulation at saturating concentrations
Experimental: Rat aortic smooth muscle cells (RSMC) prepared according to Chamley et al. in Cell Tissue Res. 177, 503-522 (1977) were used between the 10th and 25th passage at confluence in 24-well culture dishes. Culture media was aspirated and replaced with PBS (0.5 ml) containing the compound tested at the appropriate concentration. After 30 minutes at 37° C., particulates guanylate cyclase was stimulated by addition of ANF (100 nM) for 10 minutes. At the end of incubation, the medium was withdrawn and two extractions were performed by addition of 65% ethanol (0.25 ml). The two ethanolic extracts were pooled and evaporated until dryness, using a Speed-vac system. c-GMP was measured after acetylation by scintillation proximity immunoassay ([…]). The EC50 values are expressed as the dose giving half of the stimulation at saturating concentrations

| IC50 [1] | EC50 [3] | Structure (SMILES) | AUC of the fall in blood pressure over time ([2]; dosed at 10 mg/kg i.v.) | AUC of the fall in blood pressure over time ([2]; dosed at 5 mg/kg p.o.) |
| --- | --- | --- | --- | --- |
| 7 nM | 300 nM | COc1ccc([C@H]2c3[nH]c4ccccc4c3C[C@@H]3C(=O)N(C4CCCCC4)C(=O)N23)cc1 (relative stereo) [26 (cis isomer), Cis-2-cyclohexyl-5-(4-methoxyphenyl)-5,6,11,11a-tetrahydro-1H-imidazo [1',5':1,6] pyrido[3,4-b]indole-1,3(2H)-dione] | 117 mmHg·h |  |
| < 10 nM | 200 nM | O=C1[C@H]2Cc3c([nH]c4ccccc34)[C@@H](c3ccc4c(c3)OCO4)N2C(=O)N1Cc1ccccc1 [Example 32, (5R,11aR)-2-benzyl-5-(3,4-methylenedioxyphenyl)-5,6,11,11a-tetrahydro-1H-imidazo [1',5':1,6]pyrido[3,4-b]indole-1,3(2H)-dione] |  | 65 mmHg·h |
| < 10 nM | 300 nM | O=C1[C@H]2Cc3c([nH]c4ccccc34)[C@H](c3ccc4c(c3)OCO4)N2C(=O)N1Cc1ccccc1 (relative stereo) [1 (cis isomer), Cis-2-benzyl-5-(3,4-methylenedioxyphenyl)-5,6,11,11a-tetrahydro-1H-imidazo [1',5':1,6]pyrido[3,4-b]indole-1,3(2H)-dione] |  | 104 mmHg·h |
|  | < 1000 nM | CCCCN1C(=O)[C@@H]2Cc3c([nH]c4ccccc34)[C@H](c3ccc(OC)cc3)N2C1=O (relative stereo) [Example 10, Trans-2-butyl-5-(4-methoxyphenyl)-5,6,11,11a-tetrahydro-1H-imidazo [1',5':1,6] pyrido[3,4-b]indole-1,3(2H)-dione] | 147 mmHg·h |  |
